The values below come from patent publication US20070135436A1, “Chemical compounds” (Clavis Pharma AS, priority 2005, published 2007).

One test deals with several cell lines. The settings on record: prior art references; cited from earlier work.
In test [1] the test system is breast cancer cell line MaTu. In words: MTT growth inhibition in breast cancer cell line MaTu. In kind it is cell-based, human. The settings on record: MaTu cells; for IC50: 4 days incubation, MTT, read-out: IC50 μM ± Standard Deviation. The method, then:
The breast cancer cell line MaTu was seeded, 5×10^3 cells per well, in 96-well-plates. The medium was RMPI 1640 with 2 mM Glutamine and 10% Foetal Bovine Serum. 24 hours later the test compounds were added in 6 concentrations. The cells were incubated for 4 days. The MTT solution was added to each well and incubated for 4 hours. The samples were read by an ELISA reader at 540 nm. The IC50 values were determined from growth curves. The test compounds were troxacitabine elaidic amid, troxacitabine petroselaidoate, troxacitabine-petroselaidic amide and troxacitabine γ-linolenoate.

Like-named read-outs stand apart in the source and are kept apart here.

Turning to `CCCCCCCCC=CCCCCCCCC(=O)Nc1ccn(C2COC(CO)O2)c(=O)n1` (stereo not drawn) [oleic acid amid derivative], the “times better activity than the elaidic acid amide counterpart” value in the test on several cell lines is 2 to 5 times.
For the compound `CCCCCCCCCCC/C=C/CCCCC(=O)OC[C@H]1OC[C@@H](n2ccc(N)nc2=O)O1` [troxacitabine petroselaidoate, Troxacitabine-2′-hydroxymethyl-petroselaidoate], the half-maximal inhibitory concentration (IC50) in test [1] (Homo sapiens, 96 h) amounted to 0.18 ± 0.12 µM. In addition, the “fold more active than troxacitabine elaidic amide” value in test [1] (relative to troxacitabine elaidic amide) stood at 20 fold.
Turning to `CCCCC/C=C\C/C=C\C/C=C\CCCCC(=O)OC[C@H]1OC[C@@H](n2ccc(N)nc2=O)O1` [troxacitabine γ-linolenoate, Troxacitabine 2′-hydroxymethyl-6,9,12-linolenoate], in test [1] (Homo sapiens, 96 h), the IC50 came out at 0.83 ± 0.59 µM.
Same read-out and setting: to `CCCCCCCCCCC/C=C/CCCCC(=O)Nc1ccn([C@@H]2CO[C@H](CO)O2)c(=O)n1` [troxacitabine-petroselaidic amide, Troxacitabine N^4-petroselaidic Acid Amide] belongs 0.15 ± 0.07 µM.
In the case of `CCCCCCCC/C=C/CCCCCCCC(=O)Nc1ccn([C@@H]2CO[C@H](CO)O2)c(=O)n1` [troxacitabine elaidic-amide, Troxacitabine N^4-elaidic Acid Amide, reference compound], in test [1], the IC50 was found to be 3.58 ± 2.56 µM.
